Molecules are shown by their SMILES. Numbered stars: 1 amine (or outer) side, 2 acyl side, 3 side chain; on linkers, the order of the positions; unused ones are H or OH. Bridge positions count the residues as written; N and C are the ends. Square brackets hold non-standard residues; d marks the D form. Peptide text beside a SMILES is read from it. * marks the point of attachment. ξ: configuration not given here. Phe(4-CH2CH2COOH) = N[C@@H](Cc1ccc(CCC(=O)O)cc1)C(=O)O; Phe(4-CONH2) = NC(=O)c1ccc(C[C@H](N)C(=O)O)cc1; Phe(4-COOH) = N[C@@H](Cc1ccc(C(=O)O)cc1)C(=O)O; Bip = N[C@@H](Cc1ccc(-c2ccccc2)cc1)C(=O)O; Phe(3-CN) = N#Cc1cccc(C[C@H](N)C(=O)O)c1; Phe(3-Me) = Cc1cccc(C[C@H](N)C(=O)O)c1; γGlu = O=C(O)[C@H](CCC(=O)[*:2])N[*:1]; ξBip = NC(Cc1ccc(-c2ccccc2)cc1)C(=O)O; Val(3-OH) = CC(C)(O)[C@H](N)C(=O)O; 4Pal = N[C@@H](Cc1ccncc1)C(=O)O; Cha = N[C@@H](CC1CCCCC1)C(=O)O; Cit = NC(=O)NCCC[C@H](N)C(=O)O; NMeN = CN[C@@H](CC(N)=O)C(=O)O; Thr(3ξ) = CC(O)[C@H](N)C(=O)O; Dap(Me) = CNC[C@H](N)C(=O)O; 12Ado = NCCCCCCCCCCCC(=O)O; Carboxymethyl = O=C(O)C*; Orn = NCCC[C@H](N)C(=O)O; Aun = NCCCCCCCCCCC(=O)O; Dab = NCC[C@H](N)C(=O)O; Dap = NC[C@H](N)C(=O)O; ξD = NC(CC(=O)O)C(=O)O; AEEA = NCCOCCOCC(=O)O

T1 sequence (Q15116 25-288): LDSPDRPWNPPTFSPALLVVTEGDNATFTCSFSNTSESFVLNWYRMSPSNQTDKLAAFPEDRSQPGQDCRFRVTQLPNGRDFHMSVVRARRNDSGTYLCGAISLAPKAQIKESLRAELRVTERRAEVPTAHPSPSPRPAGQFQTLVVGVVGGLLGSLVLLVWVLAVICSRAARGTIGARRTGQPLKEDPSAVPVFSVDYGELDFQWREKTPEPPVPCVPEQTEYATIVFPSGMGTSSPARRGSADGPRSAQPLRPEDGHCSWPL

This assay has as its target T1, PD-1/PD-L1 interaction (PE-labeled human PD-L1-Ig binding to Jurkat cell line over-expressing human PD-1) (Homo sapiens, UniProt Q15116).
T1 construct: expressed in transfected cells; host or cells: Jurkat
Description: Jurkat-PD-1 Cell Binding High-Content Screening Assay (CBA). The conditions noted are these: Jurkat cell line over-expressing human PD-1; PE-labeled PD-L1-Ig 20 nM final; read-out: Jurkat hPD1-PDL1 IC50. Format: cell-based. An outline of the steps:
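First, compound is added to PD-1-expressing Jurkat cells in serum-containing DMEM and left 2 h at 37° C. Next, PE-conjugated PD-L1-Ig is introduced at 20 nM final concentration for 1 hour. Finally, cells are fixed in 4% paraformaldehyde with Hoechst 33342, washed and imaged.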
As to `CC(C)C[C@H]1NC(=O)[C@H](CCCN)NC(=O)[C@H](C(C)C)NC(=O)[C@H](Cc2ccc(-c3ccccc3)cc2)NC(=O)[C@H](C(C)C)NC(=O)[C@H](Cc2c[nH]c3ccccc23)NC(=O)[C@H](CC(=O)O)NC(=O)[C@H](Cc2ccc(OCC(=O)O)cc2)NC(=O)[C@H](CN)NC(=O)CSC[C@@H](C(=O)N[C@@H](CCN)C(=O)NCCOCCOCC(=O)N[C@@H](CCC(=O)NCCCCCCCCCCC(=O)O)C(=O)O)NC(=O)[C@H](CCN)NC(=O)[C@H](C(C)O)NC(=O)[C@H](CC2CCCCC2)NC(=O)[C@H](CCN)NC1=O` (stereo partly drawn) [Compound 3679] ({CH2CO}-[Dap]Y(Carboxymethyl)DWV[Bip]V[Orn][dL][Dab][Cha][Thr(3ξ)][Dab]C[Dab][AEEA][γGlu][Aun]-OH; thioether N-14), the 50% inhibitory concentration (IC50) came to 9.6 nM.

Regarding `CNC[C@@H]1NC(=O)CSC[C@@H](C(=O)N[C@@H](CCN)C(=O)NCCCCCCCCCCC(=O)O)NC(=O)[C@H](C(C)O)NC(=O)[C@H](C(C)C)NC(=O)[C@H](CC2CCCCC2)NC(=O)[C@H](CCN)NC(=O)[C@@H](CC(C)C)NC(=O)[C@H](CCCN)NC(=O)[C@H](CCCNC(N)=O)NC(=O)[C@H](Cc2ccc(-c3ccccc3)cc2)NC(=O)[C@H](C(C)C)NC(=O)[C@H](Cc2cccc(C)c2)NC(=O)[C@H](CC(=O)O)NC(=O)[C@H](Cc2ccc(OCC(=O)O)cc2)NC1=O` (stereo partly drawn) [Compound 3454] ({CH2CO}-[Dap(Me)]Y(Carboxymethyl)D[Phe(3-Me)]V[Bip][Cit][Orn][dL][Dab][Cha]V[Thr(3ξ)]C[Dab][Aun]-OH; thioether N-14), the IC50 came to 16.2 nM. With `Cc1cccc(C[C@@H]2NC(=O)[C@H](CC(=O)O)NC(=O)[C@H](Cc3ccc(OCC(=O)O)cc3)NC(=O)[C@H](CCCNC(=N)N)NC(=O)CSC[C@@H](C(=O)NCCOCCOCC(=O)NCCCCCCCCCCC(=O)O)NC(=O)[C@H](C(C)O)NC(=O)[C@H](C(C)C)NC(=O)[C@H](CC3CCCCC3)NC(=O)[C@H](CCN)NC(=O)[C@@H](CC(C)C)NC(=O)[C@H](CCCN)NC(=O)[C@H](CCCNC(N)=O)NC(=O)[C@H](Cc3ccc(-c4ccccc4)cc3)NC(=O)[C@H](C(C)C)NC2=O)c1` (stereo partly drawn) [Compound 3459] ({CH2CO}-RY(Carboxymethyl)D[Phe(3-Me)]V[Bip][Cit][Orn][dL][Dab][Cha]V[Thr(3ξ)]C[AEEA][Aun]-OH; thioether N-14), the IC50 worked out at 14.2 nM. In the case of `Cc1cccc(C[C@@H]2NC(=O)[C@H](CC(=O)O)NC(=O)[C@H](Cc3ccc(OCC(=O)O)cc3)NC(=O)[C@H](CCCNC(=N)N)NC(=O)CSC[C@@H](C(=O)N(C)[C@@H](CC(N)=O)C(=O)NCCOCCOCC(=O)NCCCCCCCCCCC(=O)O)NC(=O)[C@H](CCCN)NC(=O)[C@H](C(C)C)NC(=O)[C@H](CC3CCCCC3)NC(=O)[C@H](CCN)NC(=O)[C@@H](CC(C)C)NC(=O)[C@H](CCN)NC(=O)[C@H](C(C)C)NC(=O)[C@H](Cc3ccc(-c4ccccc4)cc3)NC(=O)[C@H](C(C)C)NC2=O)c1` [Compound 3321] ({CH2CO}-RY(Carboxymethyl)D[Phe(3-Me)]V[Bip]V[Dab][dL][Dab][Cha]V[Orn]C[NMeN][AEEA][Aun]-OH; thioether N-14) it was 51 nM.

As for `Cc1cccc(C[C@@H]2NC(=O)[C@H](CC(=O)O)NC(=O)[C@H](Cc3ccc(OCC(=O)O)cc3)NC(=O)[C@H](CN)NC(=O)CSC[C@@H](C(=O)N[C@@H](CCN)C(=O)NCCCCCCCCCCC(=O)O)NC(=O)[C@H](CCCN)NC(=O)[C@H](C(C)C)NC(=O)[C@H](CC3CCCCC3)NC(=O)[C@H](CCN)NC(=O)[C@@H](CC(C)C)NC(=O)[C@H](CCCN)NC(=O)[C@H](C(C)C)NC(=O)[C@H](Cc3ccc(-c4ccccc4)cc3)NC(=O)[C@H](C(C)C)NC2=O)c1` [Compound 2559] ({CH2CO}-[Dap]Y(Carboxymethyl)D[Phe(3-Me)]V[Bip]V[Orn][dL][Dab][Cha]V[Orn]C[Dab][Aun]-OH; thioether N-14), the IC50 was determined as 11.3 nM. `Cc1cccc(C[C@@H]2NC(=O)[C@H](CC(=O)O)NC(=O)[C@H](Cc3ccc(OCC(=O)O)cc3)NC(=O)[C@H](CN)NC(=O)CSC[C@@H](C(=O)N[C@@H](CCN)C(=O)NCCOCCOCC(=O)NCCCCCCCCCCC(=O)O)NC(=O)[C@H](CCCN)NC(=O)[C@H](C(C)C)NC(=O)[C@H](CC3CCCCC3)NC(=O)[C@H](CCN)NC(=O)[C@@H](CC(C)C)NC(=O)[C@H](CCCN)NC(=O)[C@H](Cc3ccc(O)cc3)NC(=O)[C@H](Cc3ccc(-c4ccccc4)cc3)NC(=O)[C@H](Cc3ccc(C(N)=O)cc3)NC2=O)c1` [Compound 2066] ({CH2CO}-[Dap]Y(Carboxymethyl)D[Phe(3-Me)][Phe(4-CONH2)][Bip]Y[Orn][dL][Dab][Cha]V[Orn]C[Dab][AEEA][Aun]-OH; thioether N-14): the IC50 was found to be 6 nM. Regarding `Cc1cccc(C[C@@H]2NC(=O)[C@H](CC(=O)O)NC(=O)[C@H](Cc3ccc(OCC(=O)O)cc3)NC(=O)[C@H](CN)NC(=O)CSC[C@@H](C(=O)NCCOCCOCC(=O)N[C@@H](CCN)C(=O)NCCCCCCCCCCC(=O)O)NC(=O)[C@H](CCCNC(=N)N)NC(=O)[C@H](C(C)C)NC(=O)[C@H](CC3CCCCC3)NC(=O)[C@H](CCN)NC(=O)[C@@H](CC(C)C)NC(=O)[C@H](CCCN)NC(=O)[C@H](C(C)C)NC(=O)[C@H](Cc3ccc(-c4ccccc4)cc3)NC(=O)[C@H](C(C)C)NC2=O)c1` [Compound 2544] ({CH2CO}-[Dap]Y(Carboxymethyl)D[Phe(3-Me)]V[Bip]V[Orn][dL][Dab][Cha]VRC[AEEA][Dab][Aun]-OH; thioether N-14), the IC50 stood at 10.7 nM. With `CC(C)C[C@@H]1NC(=O)[C@H](Cc2c[nH]c3ccccc23)NC(=O)[C@H](CC(=O)O)NC(=O)[C@H](Cc2ccc(C(=O)O)cc2)NC(=O)[C@H](Cc2ccc(CCC(=O)O)cc2)NC(=O)CSC[C@@H](C(=O)N[C@@H](CCN)C(=O)NCCCCCCCCCCC(=O)O)NC(=O)[C@@H](CO)NC(=O)[C@H](C(C)C)NC(=O)[C@H](CC2CCCCC2)NC(=O)[C@H](CCN)NC(=O)[C@@H](CC(C)C)NC(=O)[C@H](CCCN)NC(=O)[C@H](C(C)C)NC(=O)[C@H](Cc2ccc(-c3ccccc3)cc2)NC1=O` [Compound 2019] ({CH2CO}-[Phe(4-CH2CH2COOH)][Phe(4-COOH)]DWL[Bip]V[Orn][dL][Dab][Cha]V[dS]C[Dab][Aun]-OH; thioether N-14), the IC50 turned out to be 49.9 nM. Take `CC(=O)NCCCC[C@@H]1NC(=O)[C@H](Cc2ccc(-c3ccccc3)cc2)NC(=O)[C@H](Cc2ccc(O)cc2)NC(=O)[C@H](Cc2cccc(C)c2)NC(=O)[C@H](CC(=O)O)NC(=O)[C@H](Cc2ccc(OCC(=O)O)cc2)NC(=O)[C@H](CCN)NC(=O)CSC[C@@H](C(=O)N[C@@H](CCN)C(=O)N[C@@H](CO)C(=O)NCCCCCCCCCCCC(=O)O)NC(=O)[C@H](CCCCN)NC(=O)[C@H](C(C)O)NC(=O)[C@H](CC2CCCCC2)NC(=O)[C@H](CCN)NC(=O)[C@@H](CC(C)C)NC(=O)[C@H](CCCN)NC1=O` (stereo partly drawn) [Compound 3637] ({CH2CO}-[Dab]Y(Carboxymethyl)D[Phe(3-Me)]Y[Bip]K(Ac)[Orn][dL][Dab][Cha][Thr(3ξ)]KC[Dab]S[12Ado]-OH; thioether N-14): the IC50 is 29.1 nM.

Turning to `Cc1cccc(C[C@@H]2NC(=O)[C@H](CC(=O)O)NC(=O)[C@H](Cc3ccncc3)NC(=O)[C@H](Cc3ccc(OCC(=O)O)cc3)NC(=O)CSC[C@@H](C(=O)NCCOCCOCC(=O)N[C@@H](CCCN)C(=O)NCCCCCCCCCCC(=O)O)NC(=O)[C@H]([C@@H](C)O)NC(=O)[C@H](C(C)C)NC(=O)[C@H](CC3CCCCC3)NC(=O)[C@H](CCN)NC(=O)[C@@H](CC(C)C)NC(=O)[C@H](CCCN)NC(=O)[C@H](C(C)C)NC(=O)[C@H](Cc3ccc(-c4ccccc4)cc3)NC(=O)[C@H](C(C)C)NC2=O)c1` [Compound 1171] ({CH2CO}-Y(Carboxymethyl)[4Pal]D[Phe(3-Me)]V[Bip]V[Orn][dL][Dab][Cha]VTC[AEEA][Orn][Aun]-OH; thioether N-14), the IC50 was found to be 28 nM. As to `Cc1cccc(C[C@@H]2NC(=O)C(CC(=O)O)NC(=O)[C@H](Cc3ccc(OCC(=O)O)cc3)NC(=O)[C@H](CN)NC(=O)CSC[C@@H](C(=O)NCCOCCOCC(=O)N[C@@H](CCN)C(=O)NCCCCCCCCCCC(=O)O)NC(=O)[C@H]([C@@H](C)O)NC(=O)[C@H](C(C)C)NC(=O)[C@H](CC3CCCCC3)NC(=O)[C@H](CCN)NC(=O)[C@@H](CC(C)C)NC(=O)[C@H](CCCN)NC(=O)[C@H](CCCNC(N)=O)NC(=O)C(Cc3ccc(-c4ccccc4)cc3)NC(=O)[C@H](C(C)C)NC2=O)c1` (stereo partly drawn) [Compound 1177] ({CH2CO}-[Dap]Y(Carboxymethyl)[ξD][Phe(3-Me)]V[ξBip][Cit][Orn][dL][Dab][Cha]VTC[AEEA][Dab][Aun]-OH; thioether N-14), the IC50 came to 8.3 nM. Turning to `CC(C)C[C@H]1NC(=O)[C@H](CCCN)NC(=O)[C@H](C(C)C)NC(=O)[C@H](Cc2ccc(-c3ccccc3)cc2)NC(=O)[C@H](C(C)C)NC(=O)[C@H](Cc2c[nH]c3ccccc23)NC(=O)[C@H](CC(=O)O)NC(=O)[C@H](Cc2ccc(OCC(=O)O)cc2)NC(=O)[C@H](Cc2ccncc2)NC(=O)CSC[C@@H](C(=O)NCC(=O)NCCOCCOCC(=O)N[C@@H](CCCN)C(=O)NCCCCCCCCCCC(=O)O)NC(=O)[C@H](CCN)NC(=O)[C@H](C(C)C)NC(=O)[C@H](CC2CCCCC2)NC(=O)[C@H](CCN)NC1=O` [Compound 3236] ({CH2CO}-[4Pal]Y(Carboxymethyl)DWV[Bip]V[Orn][dL][Dab][Cha]V[Dab]CG[AEEA][Orn][Aun]-OH; thioether N-14), the IC50 worked out at 3.9 nM. In the case of `Cc1cccc(C[C@@H]2NC(=O)[C@H](CC(=O)O)NC(=O)[C@H](Cc3cccc(C#N)c3)NC(=O)[C@H](Cc3ccncc3)NC(=O)CSC[C@@H](C(=O)N[C@@H](CCN)C(=O)NCCCCCCCCCCC(=O)O)NC(=O)[C@H](CO)NC(=O)[C@H](C(C)(C)O)NC(=O)[C@H](CC3CCCCC3)NC(=O)[C@H](CCN)NC(=O)[C@@H](CC(C)C)NC(=O)[C@H](CCCN)NC(=O)[C@H](Cc3ccc(OCC(=O)O)cc3)NC(=O)[C@H](Cc3ccc(-c4ccccc4)cc3)NC(=O)[C@H](Cc3ccc(OCC(=O)O)cc3)NC2=O)c1` [Compound 2195] ({CH2CO}-[4Pal][Phe(3-CN)]D[Phe(3-Me)]Y(Carboxymethyl)[Bip]Y(Carboxymethyl)[Orn][dL][Dab][Cha][Val(3-OH)]SC[Dab][Aun]-OH; thioether N-14) it was 11.8 nM.

(Values after patent publication US20260022142A1, “MACROCYCLIC IMMUNOMODULATORS” (Bristol-Myers Squibb Company, priority 2022, published 2026).)
